From patent US20150272955A1, “Triazolo[4,5-D]Pyrimidine Compounds For Treatment Of Abdominal Aortic Aneurysms” (AstraZeneca AB, priority 2007, published 2015)
Entries after “also recorded” stand apart in the source; their conditions may differ.

Legend:
[1] = system: experimental aortic aneurysms (decellularized guinea-pig aorta xenograft in rat aorta); assay: AAA model: external aneurysmal diameter after xenograft implantation; type: in vivo
Description: (§1) Experimental aortic aneurysms were induced by implanting a segment of sodium dodecyl sulfate-decellularized guinea-pig aorta (xenogenic matrix) in rat aortas (Allaire E. et al. (1994), J Vasc Surg 19:446-456). This AAA model is characterized by immuno-inflammatory injury of the xenogeneic extracellular matrix (Allaire E et al. (1997), Surgery 122:73-81; Allaire E et al. (1996), Transplantation 62:794-803). Briefly, 46 male Lewis rats (250 g) and 46 guinea-pigs (280 g) (Iffa Credo, Lyon, France) were housed according to the principles of Laboratory Animal Care formulated by the European Union. Animals were anaesthetized by intraperitoneal injection of pentobarbital (5 mg/100 g body weight). Guinea-pig infrarenal aortas (1.5 cm) were sampled and decellularized by sodium dodecyl sulfate treatment to obtain tubes of intact extracellular matrix, which were orthotopically transplanted into the aorta of Lewis rats with 10/0 nylon interrupted sutures (xenograft) (Allaire et al., 1997; Allaire et al., 1996). The initial diameter of the graft was measured in situ, immediately after unclamping, under a binocular microscope. After 24 h, rats were randomly assigned to two equal groups, treated with Compound (A) (10 mg/kg body weight twice daily by oral administration) or with the diluent of Compound (A) (1% carboxymethylcellulose/0.1% Tween-80 in water) for 10 days (D10, n=9 for each group) or 6 weeks (D42, n=14 for each group). At sacrifice, rats were deeply anesthetized, the graft diameter was measured again, and the aorta was dissected out and fixed in 4% paraformaldehyde. Aortic samples were embedded in paraffin and cut at 5 μm.
(§2) Results are expressed as means±S.D. The percentage of diameter increase was calculated as follows: (diameter at harvest−diameter at grafting)×100/diameter at grafting. Comparisons between the two groups were made using the nonparametric Mann-Whitney U test (Statview, version 4.5). The frequency of aneurysms of large diameter in the different groups was analyzed by X^2 test. Simple regression analysis was used to test for correlations between various parameters. P<0.05 was considered significant.

[2] = system: experimental aortic aneurysms (mural thrombus and aneurysmal wall); assay: AAA model: histological and immunohistochemical analysis of aneurysm; type: in vivo, rat
Description: as §1
Sections were stained with picro Sirius red to visualize collagen and fibrin and with orcein to visualize elastin. Immunohistochemistry was performed using anti-human α-actin (dilution 1:500, Dako, Trappes, France), anti-CD68 (macrophages, dilution 1:1000, Serotec, Cergy Saint-Christophe, France), anti-rat polymorphonuclear leukocytes (dilution 1:3000, Cedarlane, Ontario, Canada), anti-CD41 (integrin αIIb, platelets, dilution 1:50, Santa Cruz Biotechnologies) and anti-MMP-9 (dilution 1:50, Calbiochem, Darmstadt, Germany) as primary antibodies and a peroxidase Vector ABC kit for detection (Vector Labs, Burlingame, Calif., USA). Cells were counted with a grid in the microscope eyepiece and averaged in 4 symmetrical fields on the same slide. The size of the areas represented by thrombus, elastic fiber, AAA wall, and MMP-9- and CD41-positive staining were measured by morphometric analysis using Histolab software (Microvision Instruments, Evly, France). Thrombus areas were determined on Sirius red slides. The area occupied by positive staining was quantified by the color detecting mode of the computer program in the inner thrombus and outer wall.
as §2

[3] = Day 42, 10 mg/kg twice daily oral

Q: With `CCCSc1nc(N[C@@H]2C[C@H]2c2ccc(F)c(F)c2)c2nnn([C@@H]3C[C@H](OCCO)[C@@H](O)[C@H]3O)c2n1` (relative stereo) [Compound (A), {1S-[1α,2α,3β(1S*,2R*),5β]}-3-(7-{[2-(3,4-difluorophenyl)cyclopropyl]amino}-5-(propylthio)-3H-1,2,3-triazolo[4,5-d]pyrimidin-3-yl)-5-(2-hydroxyethoxyl)cyclopentane-1,2-diol] as the compound, how does the “increase in aneurysmal diameter between Days 10 and 42” value ([1]; 10 mg/kg twice daily oral) read?
A: no increase in aneurysmal diameter was observed

Q: What about the “percent increase in external diameter vs control” value [1, 3] of the same compound?
A: significantly reduced

Q: What about the “incidence of larger aneurysms (diameter >4 mm)” value ([1]; Day 42, X^2=11.6, P<0.001) of the same compound?
A: predominated in the control group

Q: And the “increase in external aneurysmal diameter” value ([1]; male Lewis rats, 10 mg/kg twice daily oral, 10 days, n=9)?
A: 197.3±52.8%

Q: And the “mean external aneurysmal diameter” value ([1]; male Lewis rats, 10 mg/kg twice daily oral, Day 10)?
A: 2.22±0.56 mm

Q: And the “mean external aneurysmal diameter” value ([1]; male Lewis rats, 10 mg/kg twice daily oral, Day 42, n=14)?
A: 3.61±1.46 mm

Q: And the thrombus area/wall area ([2]; Day 10, 10 mg/kg twice daily oral)?
A: 0.07±0.05

Q: And the thrombus area/wall area [2, 3]?
A: 0.35±0.44

Q: And the “CD41-positive area (platelet marker) within the thrombus” value ([2]; Day 42, P=0.005 vs control)?
A: 0.13±0.16

Q: And the “MMP-9-positive area in the thrombus and the wall” value ([2]; Day 42, immunostaining)?
A: markedly reduced

Q: What about the “slope (s) of correlation between thrombus area and aneurysm diameter” value ([2]; Day 42, intragroup analysis) of the same compound?
A: 0.17

Q: What about the “infiltration of PMNs into the mural thrombus” value ([2]; Days 10 and 42) of the same compound?
A: significantly inhibited

Q: And the “infiltration of macrophages into the mural thrombus” value ([2]; Days 10 and 42)?
A: significantly inhibited

Q: What about the “macrophage infiltration into the aneurysmal wall” value ([2]; Days 10 and 42) of the same compound?
A: did not reach statistical significance; also recorded: no change

Q: What about the “elastic fibers of the media (elastic lamellae area)” value ([2]; Days 10 and 42, orcein staining) of the same compound?
A: significant preservation

Q: And the “SMC colonization of the wall” value ([2]; after 10 or 42 days)?
A: did not affect

Q: And the “density of SMCs within the thrombus” value ([2]; treatment for 10 days, α-actin staining)?
A: did not modify

Q: And the “SMC colonization of the thrombus” value ([2]; treatment for 42 days, α-actin staining)?
A: significantly improved
